# Where two headings read alike, the source gives them in different places.
# System: pathogens of rice blast
# Assay type: cell-based
# Conditions: 25° C., 7 days, elongation length of hyphae
compound,measurement,setting,value
"COc1nc2nc3ccccc3n2c(F)c1C(F)(F)F [Example 4, 4-fluoro-2-methoxy-3-(trifluoromethyl)benzo[4,5]imidazo[1,2-a]pyrimidine]",Control value,"test solution 1000 ppm, 1,000 μl on oatmeal culture medium",66
same,Control value,"test solution 2000 ppm, 1,000 μl on oatmeal culture medium",96

# Reference: patent US12428400B2 (priority 2020, dated 2025)
